From US4048299A, “Anticaries confectionaries and oral health products” (William Wrigley, Jr. Co., priority 1970, dated 1977)

Columns and labels:
[1] = system: Mixed human oral microorganisms; experiment: Growth inhibition by aldehydes in product vehicles, pour-plate technique; assay type: cell-based; details: 1 to 5 percent aldehyde
Summary of the method: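 Aldehydes (1 to 5 percent by weight) were formulated into syrups, candies, mouthwash, toothpaste or toothpowder, added directly or as aqueous extracts to medium without a carbon source mixed 1:1 with filter-sterilized human saliva. Sugar came from the product or added sucrose. Growth over up to 24 hours was read by pour-plate count.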

[2] = system: Mixed human oral microorganisms; experiment: Acid production inhibition by aldehydes in product vehicles, broth-tube technique; assay type: cell-based; details: 1 to 5 percent aldehyde
Streptococcus spp. KI-R = experiment: as above; assay type: cell-based; details: 1 to 5 percent aldehyde
[3] = system: Lactobacillus casei ATCC 4646; experiment: as above; assay type: cell-based; details: 1 to 5 percent aldehyde
[4] = In vivo caries evaluation, Osborne-Mendel strain 1 rat; parameters: species or system rat (Osborne-Mendel strain 1); details: Table I, 90 days
Excerpt: Standard laboratory techniques were used to complie the data presented. In each case the aldehyde was incorporated into each specimen's food in a one percent, by weight, quantity, over a period of several weeks. In all cases, caries reduction was noted.
The aldehydes tested in vivo were pyruvaldehyde, d,1-glyceraldehyde, crystalline dimer, glycolaldehyde, octanaldehyde, nonanaldehyde, decanaldehyde, undecylenic aldehyde, and lauric aldehyde. The polyaldehydes tested were dialdehyde starch, dialdehyde starch 50 percent oxidized, dialdehyde starch 90 percent oxidized, and dialdehyde galactomannan gum.
^(a) Agents were incorporated in the diet at a 1 percent level.

[5] = In vivo caries evaluation, laboratory animals (summary); details: one percent level in diet
Summary of the method: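 Aldehyde added to animals' food at one percent by weight over several weeks, with caries reduction assessed by standard laboratory techniques.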

[6] = in compressed candy tablet, 2 h incubation
[7] = in compressed candy tablet, 5 h incubation
[8] = in compressed candy tablet, 24 h incubation
[9] = in dextrose syrup, 2 h incubation
[10] = in dextrose syrup, 5 h incubation
[11] = in dextrose syrup, 24 h incubation
[12] = in sucrose syrup, 2 h incubation
[13] = in sucrose syrup, 5 h incubation
[14] = in sucrose syrup, 24 h incubation
[15] = in tooth powder (aqueous extract), 2 h incubation
[16] = in tooth powder (aqueous extract), 5 h incubation
[17] = in tooth powder (aqueous extract), 24 h incubation
[18] = in toothpaste (aqueous extract), 2 h incubation
[19] = in toothpaste (aqueous extract), 5 h incubation
[20] = in toothpaste (aqueous extract), 24 h incubation
[21] = Student's test, 95 percent confidence limit

CC(=O)C=O [Pyruvaldehyde]
Growth Inhibition [1, 6]: 99.7 Per Cent | Growth Inhibition [1, 7]: 99.99 Per Cent | Growth Inhibition [1, 8]: 99.98 Per Cent | Growth Inhibition [1, 9]: 99.8 Per Cent | Growth Inhibition [1, 10]: 100 Per Cent | Growth Inhibition [1, 11]: 99.99 Per Cent | Growth Inhibition ([1]; in hard candy, 2 h incubation): 99.5 Per Cent | Growth Inhibition ([1]; in hard candy, 5 h incubation): 100 Per Cent | Growth Inhibition ([1]; in hard candy, 24 h incubation): N.S. | Growth Inhibition ([1]; in mouthwash, 2 h incubation): 99.0 Per cent | Growth Inhibition ([1]; in mouthwash, 5 h incubation): 100 Per cent | Growth Inhibition ([1]; in mouthwash, 24 h incubation): 99.7 Per cent | Growth Inhibition [1, 12]: > 99.9 Per cent | Growth Inhibition [1, 13]: > 99.99 Per cent | Growth Inhibition [1, 14]: N.S. | Growth Inhibition [1, 15]: N.S. | Growth Inhibition [1, 16]: 99.99 Per cent | Growth Inhibition [1, 17]: 99.94 Per cent | Growth Inhibition [1, 18]: 100 Per cent | Growth Inhibition [1, 19]: N.S. | Growth Inhibition [1, 20]: 100 Per cent | Acid Production Inhibition [2, 6]: 0 Per Cent | Acid Production Inhibition [2, 7]: 89 Per Cent | Acid Production Inhibition [2, 8]: 78 Per Cent | Acid Production Inhibition [2, 9]: 15 Per Cent | Acid Production Inhibition [2, 10]: 89 Per Cent | Acid Production Inhibition [2, 11]: 83 Per Cent | Acid Production Inhibition ([2]; in hard candy, 2 h incubation): 20 Per Cent | Acid Production Inhibition ([2]; in hard candy, 5 h incubation): 93 Per Cent | Acid Production Inhibition ([2]; in hard candy, 24 h incubation): 84 Per Cent | Acid Production Inhibition ([2]; in mouthwash, 2 h incubation): 0 Per cent | Acid Production Inhibition ([2]; in mouthwash, 5 h incubation): 94 Per cent | Acid Production Inhibition ([2]; in mouthwash, 24 h incubation): 87 Per cent | Acid Production Inhibition [2, 12]: 77.8 Per cent | Acid Production Inhibition [2, 13]: 92.1 Per cent | Acid Production Inhibition [2, 14]: 91.8 Per cent | Acid Production Inhibition [2, 15]: 0 Per cent | Acid Production Inhibition [2, 16]: 86 Per cent | Acid Production Inhibition [2, 17]: 80 Per cent | Acid Production Inhibition [2, 18]: 0 Per cent | Acid Production Inhibition [2, 19]: 0 Per cent | Acid Production Inhibition [2, 20]: 0 Per cent | Acid Production Inhibition (Streptococcus spp. KI-R; [6]): 0 Per Cent | Acid Production Inhibition (Streptococcus spp. KI-R; [7]): 30 Per Cent | Acid Production Inhibition (Streptococcus spp. KI-R; [8]): 83 Per Cent | Acid Production Inhibition (Streptococcus spp. KI-R; [9]): 57 Per Cent | Acid Production Inhibition (Streptococcus spp. KI-R; [10]): 86 Per Cent | Acid Production Inhibition (Streptococcus spp. KI-R; [11]): 82 Per Cent | Acid Production Inhibition (Streptococcus spp. KI-R; in hard candy, 2 h incubation): 40 Per Cent | Acid Production Inhibition (Streptococcus spp. KI-R; in hard candy, 5 h incubation): 87 Per Cent | Acid Production Inhibition (Streptococcus spp. KI-R; in hard candy, 24 h incubation): 86 Per Cent | Acid Production Inhibition (Streptococcus spp. KI-R; in mouthwash, 2 h incubation): 0 Per cent | Acid Production Inhibition (Streptococcus spp. KI-R; in mouthwash, 5 h incubation): 0 Per cent | Acid Production Inhibition (Streptococcus spp. KI-R; in mouthwash, 24 h incubation): 86 Per cent | Acid Production Inhibition (Streptococcus spp. KI-R; [12]): 37.5 Per cent | Acid Production Inhibition (Streptococcus spp. KI-R; [13]): 82.3 Per cent | Acid Production Inhibition (Streptococcus spp. KI-R; [14]): 86.4 Per cent | Acid Production Inhibition (Streptococcus spp. KI-R; [15]): 0 Per cent | Acid Production Inhibition (Streptococcus spp. KI-R; [16]): 0 Per cent | Acid Production Inhibition (Streptococcus spp. KI-R; [17]): 0 Per cent | Acid Production Inhibition (Streptococcus spp. KI-R; [18]): 0 Per cent | Acid Production Inhibition (Streptococcus spp. KI-R; [19]): 0 Per cent | Acid Production Inhibition (Streptococcus spp. KI-R; [20]): 0 Per cent | Acid Production Inhibition [3, 6]: 0 Per Cent | Acid Production Inhibition [3, 7]: 0 Per Cent | Acid Production Inhibition [3, 8]: 75 Per Cent | Acid Production Inhibition [3, 9]: 52 Per Cent | Acid Production Inhibition [3, 10]: 33 Per Cent | Acid Production Inhibition [3, 11]: 88 Per Cent | Acid Production Inhibition ([3]; in hard candy, 2 h incubation): 0 Per Cent | Acid Production Inhibition ([3]; in hard candy, 5 h incubation): 22 Per Cent | Acid Production Inhibition ([3]; in hard candy, 24 h incubation): 90 Per Cent | Acid Production Inhibition [3, 12]: 0 Per cent | Acid Production Inhibition [3, 13]: 20.0 Per cent | Acid Production Inhibition [3, 14]: 89.6 Per cent | Acid Production Inhibition [3, 15]: 0 Per cent | Acid Production Inhibition [3, 16]: 0 Per cent | Acid Production Inhibition [3, 17]: 71 Per cent | Acid Production Inhibition [3, 18]: 0 Per cent | Acid Production Inhibition [3, 19]: 0 Per cent | Acid Production Inhibition [3, 20]: 0 Per cent | Caries Score, Mean Incidence ([4]; 1 percent in diet, RCD control 23.3 (pyruvaldehyde test), 12.85 (glycolaldehyde test)): 8.6 | Caries Score, Mean Extent ([4]; 1 percent in diet, RCD control 64.8 (pyruvaldehyde test), 35.45 (glycolaldehyde test)): 21.7 | Caries Extent Reduction, statistical evaluation [4, 21]: Significant | Caries Incidence Reduction, statistical evaluation [4, 21]: Significant | Anticaries effect in laboratory animals [5]: significant anticaries effects
